This experiment concerns the target T1, h-GABAA α5β2γ1 (Homo sapiens, UniProt P31644+Q8N1C3).
T1 construct: expressed in transfected cells; host or cells: HEK293F cells (ThermoFisher R79007), membranes
T1 sequence (P31644 32-462): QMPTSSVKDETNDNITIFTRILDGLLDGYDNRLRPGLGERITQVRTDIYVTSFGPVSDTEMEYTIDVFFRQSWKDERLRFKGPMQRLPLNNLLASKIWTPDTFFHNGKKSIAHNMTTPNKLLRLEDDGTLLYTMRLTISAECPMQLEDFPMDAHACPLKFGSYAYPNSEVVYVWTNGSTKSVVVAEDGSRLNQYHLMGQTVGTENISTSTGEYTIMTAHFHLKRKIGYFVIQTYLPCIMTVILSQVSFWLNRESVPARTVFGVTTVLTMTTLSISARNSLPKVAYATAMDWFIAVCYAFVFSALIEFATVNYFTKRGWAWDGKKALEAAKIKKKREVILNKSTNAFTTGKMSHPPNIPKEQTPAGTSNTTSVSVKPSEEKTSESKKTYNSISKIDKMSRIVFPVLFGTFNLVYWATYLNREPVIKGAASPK
T1 sequence (P47870 25-512 partner limits assumed): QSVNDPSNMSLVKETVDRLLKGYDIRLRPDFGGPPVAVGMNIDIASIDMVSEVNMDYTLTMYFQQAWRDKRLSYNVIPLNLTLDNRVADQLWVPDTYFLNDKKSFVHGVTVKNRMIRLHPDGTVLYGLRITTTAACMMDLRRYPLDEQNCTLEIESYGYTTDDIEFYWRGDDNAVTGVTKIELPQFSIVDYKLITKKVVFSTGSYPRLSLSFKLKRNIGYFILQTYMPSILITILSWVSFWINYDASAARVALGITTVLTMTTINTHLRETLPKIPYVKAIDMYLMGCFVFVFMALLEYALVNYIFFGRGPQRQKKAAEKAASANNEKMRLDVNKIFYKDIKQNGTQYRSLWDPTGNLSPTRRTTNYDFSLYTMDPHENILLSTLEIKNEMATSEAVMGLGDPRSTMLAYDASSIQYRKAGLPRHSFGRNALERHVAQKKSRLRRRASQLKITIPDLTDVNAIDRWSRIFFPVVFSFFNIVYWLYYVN
T1 sequence (Q8N1C3 36-465): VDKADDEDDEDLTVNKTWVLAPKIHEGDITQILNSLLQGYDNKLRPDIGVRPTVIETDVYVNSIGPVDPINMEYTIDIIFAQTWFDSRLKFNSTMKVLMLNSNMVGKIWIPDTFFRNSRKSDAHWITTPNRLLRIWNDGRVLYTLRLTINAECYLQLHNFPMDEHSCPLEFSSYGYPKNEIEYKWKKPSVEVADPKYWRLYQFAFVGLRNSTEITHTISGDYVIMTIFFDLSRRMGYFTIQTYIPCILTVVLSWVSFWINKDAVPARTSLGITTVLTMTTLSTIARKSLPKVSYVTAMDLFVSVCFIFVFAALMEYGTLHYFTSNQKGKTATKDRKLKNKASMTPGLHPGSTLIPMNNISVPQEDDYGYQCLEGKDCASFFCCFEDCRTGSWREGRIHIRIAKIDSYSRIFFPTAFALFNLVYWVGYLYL
As to the kind of experiment: Radioligand binding assay, [3H]RO7239181 competition, HEK293F membranes. The protocol:
The affinity of compounds at GABAA γ1 subunit-containing receptors was measured by competition for [^3H]RO7239181 (67.3 Ci/mmol; Roche) binding to membranes from HEK293F cells (ThermoFisher R79007) expressing human (transiently transfected) receptors of composition […], α2β2γ1, α1β2γ1. For better protein expression of the α2 subunit-containing receptors, the 28 amino acid long signal peptide (Met1 to Ala28) of the human GABAA α2 subunit was substituted by the 31 amino acid long signal peptide (Met1 to Ser31) of human GABAA α5 subunit.
Harvested pellets from HEK293F cells expressing the different GABAA receptor subtypes were resuspended in Mannitol Buffer pH 7.2-7.4 (Mannitol 0.29M, Triethylamine 10 mM, Acetic acid 10 mM, EDTA 1 mM plus protease inhibitors (20 tablets Complete, Roche Diagnostics Cat. No. 05 056 489 001 per liter)), washed two times and then resuspended at 1:10 to 1:15 dilution in the same buffer. Cell disruption was performed by stirring the suspension in a Parr vessel #4637 at 435 psi for 15 minutes, and then the suspensions were centrifuged at 1000×g for 15 minutes at 4° C. (Beckman Avanti J-HC; rotor JS-4.2). The supernatant (S1) was transferred in a 21 Schott flask and the pellet (P1) was resuspended with Mannitol Buffer up to 175 ml. The resuspended pellet was transferred into a 250 ml Corning centrifugal beaker and centrifuged at 1500×g for 10 minutes at 4° C. (Beckman Avanti J-HC; rotor JS-4.2). The supernatant (S1) was then transferred in the 21 Schott flask and the pellet was discarded. The supernatants (S1) were centrifuged in 500 ml Beckman polypropylene centrifugal beaker at 15′000×g for 30 minutes at 4° C. (Beckman Avanti J-20 XP; rotor JLA-10.500). The pellet (P2) was resuspended with Mannitol Buffer 1:1 and frozen at −80° C. The supernatant (S2) was centrifuged in 100 ml Beckman polypropylene centrifugal tubes at 48000×g for 50 minutes at 4° C. (Beckman Avanti J-20 XP; rotor JA-18). The supernatant (S3) was discarded and the pellet (P3) was resuspended with 1:1 Mannitol Buffer. The P2 and P3 protein concentration was determined with the BIORAD Standard assay method with bovine serum albumin as standard and measured on the NANO-Drop 1000. The membrane suspension was aliquots (500 μl per tube) and stored at −80° C. until required. Membrane homogenates were resuspended and polytronised (Polytron PT1200E Kinematica AG) in Potassium Phosphate 10 mM, KCl 100 mM binding buffer at pH 7.4 to a final assay concentration determined with a previous experiment.
Radioligand binding assays were carried out in a volume of 200 μL (96-well plates) which contained 100 μL of cell membranes, [^3H]RO7239181 at a concentration of 1.5 nM (α5β2γ1) or 20-30 nM (α1β2γ1, α2β2γ1) and the test compound in the range of [0.3-10000]×10^−9 M. Nonspecific binding was defined by 10×10^−6 (α5β2γ1) and 30×10^−6 M RO7235136 and typically represented less than 5% (α5β2γ1) and less than 20% (α1β2γ1, α2β2γ1) of the total binding. Assays were incubated to equilibrium for 1 hour at 4° C. and then, membranes were filtered onto unifilter (96-well white microplate with bonded GF/C filters preincubated 20-50 minutes in 0.3% Polyethylenimine) with a Filtermate 196 harvester (Packard BioScience) and washed 4 times with cold Potassium Phosphate 10 mM pH 7.4, KCl 100 mM binding buffer. After drying, filter-retained radioactivity was detected by liquid scintillation counting. Ki values were calculated using Excel-Fit (Microsoft) and are the means of two determinations.
One may read the Ki as a measure of affinity in units of concentration, obtained from inhibition or displacement. Read a low Ki as tighter binding. With `COc1ccc2c(c1Cl)C(c1c(F)cccc1F)=NCc1nnc(-c3cccnc3)n1-2` [Example 62, 7-chloro-6-(2,6-difluorophenyl)-8-methoxy-1-(3-pyridyl)-4H-[1,2,4]triazolo[4,3-a][1,4]benzodiazepine], affinity was put at a Ki of 4 nM. With `CO[C@H]1C[C@H](c2nnc3n2-c2ccc(Cl)c(Cl)c2C(c2c(F)cccc2F)=NC3)C1` [Example 91, trans-7,8-dichloro-6-(2,6-difluorophenyl)-1-(3-methoxycyclobutyl)-4H-[1,2,4]triazolo[4,3-a][1,4]benzodiazepine] the figure was 3.1 nM; with `Clc1cccnc1C1=NCc2nnc(-c3cccnn3)n2-c2ccc(Br)c(Cl)c21` [Example 47, 8-bromo-7-chloro-6-(3-chloro-2-pyridyl)-1-pyridazin-3-yl-4H-[1,2,4]triazolo[4,3-a][1,4]benzodiazepine], 1.3 nM; with `Cl.NCc1nnc2n1-c1ccc(Br)c(Cl)c1C(c1c(F)cccc1F)=NC2` [Example 36, [8-bromo-7-chloro-6-(2,6-difluorophenyl)-4H-[1,2,4]triazolo[4,3-a][1,4]benzodiazepin-1-yl]methanamine hydrochloride], 1.8 nM. With `Fc1cccc(F)c1C1=NCc2nncn2-c2ccc(Cl)c(Cl)c21` [Example 15, 7,8-dichloro-6-(2,6-difluorophenyl)-4H-[1,2,4]triazolo[4,3-a][1,4]benzodiazepine] the figure was 0.9 nM; with `CC(F)(F)c1ccc2c(c1Cl)C(c1c(F)cccc1F)=NCc1nncn1-2` [Example 21, 7-chloro-8-(1,1-difluoroethyl)-6-(2,6-difluorophenyl)-4H-[1,2,4]triazolo[4,3-a][1,4]benzodiazepine], 4.6 nM. With `Fc1cccnc1C1=NCc2nnc(-c3cccnn3)n2-c2ccc(Br)c(Cl)c21` [Example 45, 8-bromo-7-chloro-6-(3-fluoro-2-pyridyl)-1-pyridazin-3-yl-4H-[1,2,4]triazolo[4,3-a][1,4]benzodiazepine] the figure was 3 nM; with `Cc1nnc2n1-c1ccc(Cl)c(Cl)c1C(c1ccccc1F)=NC2` [Example 4, 7,8-dichloro-6-(2-fluorophenyl)-1-methyl-4H-[1,2,4]triazolo[4,3-a][1,4]benzodiazepine], 5.4 nM.

Compound `Cc1nnc2n1-c1ccc(C(F)(F)F)c(Cl)c1C(c1c(F)cccc1F)=NC2` [Example 40, 7-chloro-6-(2,6-difluorophenyl)-1-methyl-8-(trifluoromethyl)-4H-[1,2,4]triazolo[4,3-a][1,4]benzodiazepine] showed a Ki of 1.9 nM. Against the preceding compound, the Ki is about 2.8-fold lower. For the compound `Fc1cccnc1C1=NCc2nnc(-c3ccncn3)n2-c2ccc(Cl)c(Cl)c21` [Example 55, 7,8-dichloro-6-(3-fluoro-2-pyridyl)-1-pyrimidin-4-yl-4H-[1,2,4]triazolo[4,3-a][1,4]benzodiazepine], the affinity corresponds to a Ki of 5.5 nM. In turn, `Fc1cccc(F)c1C1=NCc2nnc(-c3cccnn3)n2-c2ccc(Br)c(Br)c21` [Example 42, 7,8-dibromo-6-(2,6-difluorophenyl)-1-pyridazin-3-yl-4H-[1,2,4]triazolo[4,3-a][1,4]benzodiazepine] returned an inhibition constant (Ki) of 0.9 nM. This Ki lies about 6.1-fold lower than the previous one.

`Fc1ccccc1C1=NCc2nncn2-c2ccc(Br)c(Cl)c21` [Example 8, 8-bromo-7-chloro-6-(2-fluorophenyl)-4H-[1,2,4]triazolo[4,3-a][1,4]benzodiazepine]: the inhibition constant Ki was 2.3 nM.

`OCc1nnc2n1-c1ccc(Br)c(Cl)c1C(c1c(F)cccc1F)=NC2` [Example 33, [8-bromo-7-chloro-6-(2,6-difluorophenyl)-4H-[1,2,4]triazolo[4,3-a][1,4]benzodiazepin-1-yl]methanol] registered an inhibition constant Ki of 1.5 nM. Against the preceding compound, the Ki is about 1.5-fold lower.

The compound `Fc1cccnc1C1=NCc2nnc(-c3ccncn3)n2-c2ccc(Br)c(Cl)c21` [Example 46, 8-bromo-7-chloro-6-(3-fluoro-2-pyridyl)-1-pyrimidin-4-yl-4H-[1,2,4]triazolo[4,3-a][1,4]benzodiazepine] registered an inhibitory constant (Ki) of 3.9 nM. In turn, `Cc1nnc2n1-c1ccc(C(F)F)c(Cl)c1C(c1c(F)cccc1F)=NC2` [Example 25, 7-chloro-8-(difluoromethyl)-6-(2,6-difluorophenyl)-1-methyl-4H-[1,2,4]triazolo[4,3-a][1,4]benzodiazepine] registered a Ki of 4.4 nM. Compound `Fc1ccccc1C1=NCc2nnc(-c3cccnn3)n2-c2ccc(Cl)c(Cl)c21` [Example 10, 7,8-dichloro-6-(2-fluorophenyl)-1-pyridazin-3-yl-4H-[1,2,4]triazolo[4,3-a][1,4]benzodiazepine] returned a Ki of 1.4 nM. In the case of `Cc1nnc2n1-c1ccc(C3CC3)c(Cl)c1C(c1c(F)cccc1F)=NC2` [Example 6, 7-chloro-8-cyclopropyl-6-(2,6-difluorophenyl)-1-methyl-4H-[1,2,4]triazolo[4,3-a][1,4]benzodiazepine], the inhibitory constant (Ki) amounted to 12.7 nM.

Turning to `Cc1nnc2n1-c1ccc(I)c(Cl)c1C(c1c(F)cccc1F)=NC2` [Example 41, 7-chloro-6-(2,6-difluorophenyl)-8-iodo-1-methyl-4H-[1,2,4]triazolo[4,3-a][1,4]benzodiazepine], the affinity corresponds to a Ki of 0.8 nM. Against the preceding compound, the Ki is about 16-fold lower.

`Fc1cccnc1C1=NCc2nncn2-c2ccc(Br)c(Cl)c21` [Example 29, 8-bromo-7-chloro-6-(3-fluoro-2-pyridyl)-4H-[1,2,4]triazolo[4,3-a][1,4]benzodiazepine]: the Ki was determined as 7.2 nM. Against the preceding compound, the Ki is about 9-fold higher. `Fc1cccc(F)c1C1=NCc2nnc(-c3cccnn3)n2-c2ccc(I)c(Cl)c21` [Example 39, 7-chloro-6-(2,6-difluorophenyl)-8-iodo-1-pyridazin-3-yl-4H-[1,2,4]triazolo[4,3-a][1,4]benzodiazepine] registered a Ki of 0.8 nM. Compared with the last compound, the Ki is about 9-fold lower.

(Values after patent US20230141603A1, “BENZODIAZEPINE DERIVATIVES AS GABA A GAMMA1 PAM” (Hoffmann-La Roche Inc., priority 2021, published 2023).)
